Results on 79 compounds are retold here after the METLIN SMRT retention time set (Domingo-Almenara et al. 2019).

This data set is described as follows: gradient 5% acetonitrile 3 min, to 50% in 2 min, to 85% in 15 min, held 3 min, 100 µL/min. The settings on record: column: Zorbax Extend-C18 2.1 x 50 mm; eluents: water / acetonitrile, 0.1% formic acid. The method, boiled down: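 Over 3 months, pure standards in mixtures of ~100 molecules were run by HPLC coupled to a quadrupole time-of-flight mass spectrometer in positive and negative ionization mode. The column was a Zorbax Extend-C18 (2.1 × 50 mm, 1.8 μm) at 100 μL/min, eluted with water and acetonitrile each holding 0.1% formic acid, with 40 μL dead and 900 μL dwell volumes. Retention time was determined from adduct peaks chosen by software and checked manually.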
Take `N#CCCc1ccc2c(c1)-c1[nH]c3ccc([N+](=O)[O-])cc3c1CC(=O)N2`: the RP-LC retention time is 778 s.

In turn, `O=C(NCc1ccc(F)c(Cl)c1)c1cn2c(n1)CCCC2` showed an RP-LC retention time of 628 s.

In the case of `CC(C)c1ccc(NC(=O)C2CCN(S(C)(=O)=O)c3ccccc3O2)cc1` (centres undefined), the RP-LC retention time came out at 930 s.

`Cc1ccc2nc(C(=O)NCc3ccc(F)cc3)cn2c1` had an RP-LC retention time of 645 s.

For `CN1c2ccc(F)cc2C(=O)NC12CCN(C(=O)Cc1ccccc1Cl)CC2`, the RP-LC retention time turned out to be 774 s.

On to `Cc1cc(C)cc(S(=O)(=O)N2CCC(C(=O)NCc3csc(-c4cccs4)n3)CC2)c1`, for which the RP-LC retention time came to 967 s.

`COc1ccc(C(=O)Nc2nc(-c3ccc4c(c3)N(C)C(=O)C(C)O4)cs2)cc1` (centres undefined) showed an RP-LC retention time of 984 s.

`CCCN1C(=O)CN(S(=O)(=O)c2ccccc2)CC1(C)C(=O)NCc1ccc(C)cc1` (centres undefined) yielded an RP-LC retention time of 898 s.

`Cc1ccc(NC(=O)Cn2c(N3CCc4ccccc4C3)nc(C)cc2=O)cc1`: the RP-LC retention time was 810 s.

Consider `CCOC(=O)c1c(C)c(CCC(=O)NC(C)c2ccccc2)n(C)c1C` (centres undefined), for which the RP-LC retention time came out at 904 s.

The compound `CC1CCN(c2cc(-n3cnc(C(=O)N4CCOCC4)c3)ncn2)CC1` gave an RP-LC retention time of 750 s.

Compound `O=C(NCCN1CCCC1)c1nnc(-c2ccc(S(=O)(=O)N3CCCC3)cc2)o1` registered an RP-LC retention time of 602 s.

The compound `Cc1ccc(-c2cn(CC(=O)N3CCN(c4ccc(C)cc4)CC3)c(=O)o2)cc1` came in with an RP-LC retention time of 975 s.

Compound `CC1CCN(c2cncnc2-n2cc(NC(=O)CC3CCCCC3)cn2)CC1` had an RP-LC retention time of 1030 s.

Compound `COc1cc2ncc(C(=O)c3ccccc3)c(N3CCN(C)CC3)c2cc1OC` registered an RP-LC retention time of 556 s.

The compound `CCOc1cccc(CNC(=O)c2cn(C)nc2S(=O)(=O)N2CCSCC2)c1` came in with an RP-LC retention time of 889 s.

`O=C(NCc1ccccc1)N1CCN(c2nc3cccnc3n(Cc3ccccc3)c2=O)CC1` came in with an RP-LC retention time of 1020 s.

In turn, `Cc1cccc2c(C(=O)NC(C)C)cc(N(C)C)nc12` yielded an RP-LC retention time of 614 s.

For `O=C(C1CCCN(c2nc3ccccc3n3cccc23)C1)N1CCN(c2ccccc2)CC1` (centres undefined), the RP-LC retention time stood at 793 s.

In turn, `O=C(C1CCCN(c2nnc(-n3cccc3)s2)C1)N1CCN(c2ccc(F)cc2)CC1` (centres undefined) gave an RP-LC retention time of 950 s.

Turning to `Cc1ccc(-n2nc(C(=O)Nc3ccc4c(c3)OCCO4)c3ncn(C)c(=O)c32)cc1`, the RP-LC retention time stood at 887 s.

On to `COc1ccc(-c2cc3c(=O)n(Cc4ccccc4)ccn3n2)cc1OC`, for which the RP-LC retention time was found to be 906 s.

The compound `CCOc1ccc(C(=O)NCC(=O)Nc2nc3ccccc3[nH]2)cc1OCC` displayed an RP-LC retention time of 640 s.

In turn, `CCC(=O)N1CCC2(CC1)c1nccn1-c1ccccc1CN2CC(C)C` gave an RP-LC retention time of 632 s.

The compound `O=C(NCc1ccc(F)cc1)c1ccc2c(c1)CCN2C(=O)C1CC1` showed an RP-LC retention time of 813 s.

For `COC(=O)c1ncn2c1C(=O)N(Cc1ccc(F)cc1)C(C)(C(=O)NCc1ccc(C)cc1)C2` (centres undefined), the RP-LC retention time came to 772 s.

`COCCCNC(=O)N1CCCCCC1c1ccccc1Cl` (centres undefined) came in with an RP-LC retention time of 933 s.

`COc1ccc(CCNC(=O)CSc2c[nH]c3ccccc23)cc1OC` displayed an RP-LC retention time of 717 s.

In turn, `O=C(c1ccc(-c2nccnc2N2CCCC2)cc1)N1CCN(c2ccccc2)CC1` gave an RP-LC retention time of 942 s.

On to `COCC1CN(C(=O)c2sccc2C)CC12CCNCC2` (centres undefined), for which the RP-LC retention time is 575 s.

Take `COc1ccc(CCc2nc3nccc(-c4ccccc4)n3n2)cc1OC`: the RP-LC retention time is 821 s.

Consider `Cn1nc(-c2ccncc2)nc1C1CN(S(=O)(=O)c2cc(F)ccc2F)C1`, for which the RP-LC retention time was 638 s.

In turn, `CC(C)(C)c1nnc(NC(=O)C2CC(=O)N(CCc3c[nH]c4ccc(Cl)cc34)C2)s1` (centres undefined) displayed an RP-LC retention time of 831 s.

`O=C(C1CCC1)N1CCc2sc(S(=O)(=O)N3CCN(c4ccccc4)CC3)cc2C1` returned an RP-LC retention time of 1060 s.

The compound `Cc1nc2nc(-c3ccccc3)nn2c(C)c1CC(=O)N(C)Cc1ccccc1` came in with an RP-LC retention time of 842 s.

`CCC(=O)N1CCCn2nc(-c3cccnc3)cc2C1` displayed an RP-LC retention time of 562 s.

With `Cc1ccc(S(=O)(=O)CC(=O)Nc2nc(-c3ccc4ccccc4c3)cs2)cc1`, the RP-LC retention time amounted to 1100 s.

Turning to `Cc1ccc(C)c(N2CCN(C(=O)C3CCCCN3S(=O)(=O)c3ccc(F)cc3)CC2)c1` (centres undefined), the RP-LC retention time stood at 1250 s.

Turning to `COCCN(CC1(C)CCOCC1)C(=O)NCc1ccc(F)cc1`, the RP-LC retention time was 752 s.

As for `CC(=O)Nc1ccc(Nc2nc3ccccc3nc2NS(=O)(=O)c2cccs2)cc1`, the RP-LC retention time is 794 s.

The compound `O=C(Cc1csc(NC(=O)Nc2ccccc2)n1)NCCc1c[nH]c2ccccc12` had an RP-LC retention time of 891 s.

`Cc1ccc(C2CC(=O)N(c3ccc(F)cc3F)C(=O)C2)cc1` registered an RP-LC retention time of 987 s.

Compound `Cc1cccc(C)c1-n1ccn(Cc2nc(-c3cccc(F)c3)no2)c(=O)c1=O` gave an RP-LC retention time of 901 s.

Compound `COCCC(=O)N(C)Cc1cccnc1Oc1ccccc1` came in with an RP-LC retention time of 1060 s.

Compound `CCc1cc(=O)n(CC(=O)N(CC)Cc2ccccc2)c(N)n1` displayed an RP-LC retention time of 639 s.

`O=C(NCC1CC1)C1CCN(c2nc3ccsc3c(=O)n2Cc2ccccc2)CC1` had an RP-LC retention time of 814 s.

With `CCC1CN(S(=O)(=O)c2cc(-c3cc(C)no3)cs2)c2cc(Cl)ccc2O1` (centres undefined), the RP-LC retention time is 1240 s.

`CCS(=O)(=O)N1CCCC(n2c(C)cnc2-c2ccncc2)C1` (centres undefined) displayed an RP-LC retention time of 565 s.

The compound `O=C(CSc1n[nH]c(-c2ccc(F)cc2)n1)Nc1ccc(F)cc1F` gave an RP-LC retention time of 853 s.

Turning to `O=C(Nc1cccc(Cl)c1)Nc1nccn(-c2ccc3c(c2)CCC3)c1=O`, the RP-LC retention time worked out at 1170 s.

Regarding `CCCN1CCn2cc(S(=O)(=O)Nc3cc(OC)cc(OC)c3)cc2C1=O`, the RP-LC retention time was determined as 744 s.

As for `CC(=O)N1CCc2cc(-c3ccc(C(=O)N4CCN(Cc5ccc6c(c5)OCO6)CC4)cc3)ccc21`, the RP-LC retention time amounted to 647 s.

Compound `CC(C)c1nc(N2CCCC2=O)sc1C(=O)NCc1ccc(N(C)C)cc1` came in with an RP-LC retention time of 675 s.

Regarding `N#Cc1cccc(-c2cn3c(n2)N(C(=O)C2CCCO2)CCC3)c1` (centres undefined), the RP-LC retention time is 703 s.

Take `COC(=O)C1=CN(c2ccc(F)c(Cl)c2)c2ccc(F)cc2S1(=O)=O`: the RP-LC retention time turned out to be 929 s.

For the compound `COc1ccc(Nc2c(-c3ccc(C)cc3)nc3cnc(Br)cn23)cc1OC`, the RP-LC retention time was 915 s.

On to `O=C(c1cccc(C(F)(F)F)c1)N1CCN(c2cc(-n3ccnc3)ncn2)CC1`, for which the RP-LC retention time came out at 606 s.

The compound `COc1ccc(CN2CCC([C@@H]3CNC[C@H]3CO)CC2)c(Cl)c1OC` returned an RP-LC retention time of 551 s.

In the case of `C=CCNC(=O)C(=O)N1CCN(c2ccc(OC)cc2)CC1`, the RP-LC retention time came to 625 s.

Compound `CC1CCN(C(=O)CN2C(=O)CCCc3cc(S(=O)(=O)N4CCCCC4)ccc32)CC1` registered an RP-LC retention time of 901 s.

Compound `Cc1nc(Nc2ccccn2)sc1C(=O)N1CCN(C2CCCCC2)CC1` returned an RP-LC retention time of 597 s.

With `O=C(Nc1ccc(F)c(Cl)c1)C1CCN(C(=O)NCc2cccs2)CC1`, the RP-LC retention time stood at 764 s.

With `C[C@]12CC[C@@H]3c4ccc(O)cc4C[C@@H](CCCCCCCCCS(=O)CCCC(F)(F)C(F)(F)F)[C@H]3[C@@H]1CC[C@@H]2O` (some centres undefined), the RP-LC retention time was 1250 s.

Consider `Cc1nc(C)c(C(=O)Nc2cc(Cl)ccc2C)s1`, for which the RP-LC retention time amounted to 837 s.

The compound `Cc1ccccc1Nc1c(-c2c(F)cccc2Cl)nc2cccc(C)n12` registered an RP-LC retention time of 762 s.

`Cc1ccc(CN2C(=O)C3(CCOCC3)CC2c2nnnn2C(C)(C)C)cc1C` (centres undefined) showed an RP-LC retention time of 862 s.

`O=C(NCCc1ccsc1)Nc1ccccc1C(F)(F)F` returned an RP-LC retention time of 842 s.

In turn, `COc1ccc(NC(=O)c2cnc3c(c2)c(=O)n(C)c(=O)n3-c2ccc(OC)cc2)cc1` yielded an RP-LC retention time of 859 s.

As to `O=C(NCc1ccc(Cl)cc1)c1ccc(Oc2nccnc2N2CCSCC2)cc1`, the RP-LC retention time came to 986 s.

Compound `CC(C)c1ccc(NC(=O)Cn2cnc3nc4c(cc3c2=O)CCCC4)cc1` showed an RP-LC retention time of 762 s.

With `O=C(Nc1ccccc1NC(=O)C1CC(=O)N(c2ccc(F)cc2)C1)c1ccsc1` (centres undefined), the RP-LC retention time is 739 s.

The compound `CCc1noc(-c2cccn2CC#N)n1` came in with an RP-LC retention time of 824 s.

`Cc1cccc(NS(=O)(=O)c2ccc(-c3c(C)noc3C)cc2)c1` registered an RP-LC retention time of 881 s.

`CCCn1cc(CCNS(=O)(=O)c2cccc(F)c2)c2cccnc21` showed an RP-LC retention time of 837 s.

Regarding `COc1ccc(OC)c(-c2csc(-c3nnn(-c4ccc(Cl)cc4)c3N)n2)c1`, the RP-LC retention time is 1200 s.

Regarding `Cc1ccc(C)c(CNS(=O)(=O)c2cc(-c3[nH]ncc3C(=O)N3CCCC3)oc2C)c1`, the RP-LC retention time worked out at 835 s.

Consider `Cc1ccc(CNC(=O)Cn2ccnc2-c2ccnc(N3CCCC3)c2)cc1`, for which the RP-LC retention time worked out at 602 s.

In the case of `Cn1c(=O)sc2cc(S(=O)(=O)N3CCC(C(=O)NCc4ccco4)CC3)ccc21`, the RP-LC retention time came to 739 s.

Consider `Cc1nc(-c2cc3cccc(C)c3nc2N2CCN(C)CC2)no1`, for which the RP-LC retention time amounted to 665 s.
